{"source": "patent US4303592A", "about": "(priority 1980, dated 1981)", "key": {"Trypsin [1]": {"biological_target": "T1, Trypsin (Bos taurus, UniProt P00760)", "T1 sequence (P00760 24-246)": "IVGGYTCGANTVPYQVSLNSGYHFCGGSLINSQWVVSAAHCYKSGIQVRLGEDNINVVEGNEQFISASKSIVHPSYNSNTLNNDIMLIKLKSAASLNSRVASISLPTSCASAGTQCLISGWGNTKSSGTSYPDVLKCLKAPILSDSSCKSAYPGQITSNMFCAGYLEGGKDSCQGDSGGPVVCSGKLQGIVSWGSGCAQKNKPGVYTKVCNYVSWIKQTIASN", "experiment": "inactivation of trypsin by meta amidinophenylmethylsulfonylfluoride", "format": "biochemical, bovine", "settings": "equimolar or greater amounts of reagent; FIG. 2", "description": "(§1) m-Amidinophenylmethylsulfonylfluoride was tested for inhibitory activity against bovine trypsin and chymotrypsin."}, "chymotrypsin [2]": {"tested_on": "chymotrypsin", "experiment": "inhibition of chymotrypsin by m-amidinophenylmethylsulfonylfluoride", "format": "biochemical", "settings": "30 minutes, four-fold molar excess", "description": "as §1"}, "Trypsin [3]": {"biological_target": "T1, Trypsin", "experiment": "inhibition/inactivation of bovine trypsin", "format": "biochemical", "settings": "for % Activity Remaining: Trypsin 60.6 μM, PAPMSF 127 μM"}, "Thrombin": {"biological_target": "Thrombin (Homo sapiens, UniProt P00734)", "experiment": "inhibition/inactivation of human thrombin", "format": "biochemical", "settings": "for % Activity Remaining: Thrombin 74.5 μM, PAPMSF 159 μM"}, "Cl-s": {"biological_target": "T2, Cl-s (Homo sapiens, UniProt P09871)", "T2 sequence (P09871 438-688 limits assumed)": "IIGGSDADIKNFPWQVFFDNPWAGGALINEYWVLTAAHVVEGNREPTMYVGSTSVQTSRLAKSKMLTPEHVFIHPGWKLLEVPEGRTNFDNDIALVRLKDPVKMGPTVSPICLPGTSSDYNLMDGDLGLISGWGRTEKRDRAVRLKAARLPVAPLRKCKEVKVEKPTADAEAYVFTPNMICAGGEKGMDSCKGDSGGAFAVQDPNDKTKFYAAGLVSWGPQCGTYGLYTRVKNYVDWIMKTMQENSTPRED", "T2 sequence (P09871 16-437 partner limits assumed)": "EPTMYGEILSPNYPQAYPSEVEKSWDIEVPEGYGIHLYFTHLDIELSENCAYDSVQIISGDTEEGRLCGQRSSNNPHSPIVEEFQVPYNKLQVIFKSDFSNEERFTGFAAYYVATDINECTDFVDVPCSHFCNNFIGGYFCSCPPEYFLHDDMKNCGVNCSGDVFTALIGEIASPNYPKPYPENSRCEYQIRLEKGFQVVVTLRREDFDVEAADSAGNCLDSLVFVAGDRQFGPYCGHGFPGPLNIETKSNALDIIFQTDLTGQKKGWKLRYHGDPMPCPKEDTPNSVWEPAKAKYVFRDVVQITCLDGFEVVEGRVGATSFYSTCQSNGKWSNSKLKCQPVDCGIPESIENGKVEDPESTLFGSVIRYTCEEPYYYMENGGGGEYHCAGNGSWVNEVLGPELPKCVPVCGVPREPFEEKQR", "experiment": "inhibition/inactivation of human Cls", "format": "biochemical", "settings": "for % Activity Remaining: Cl-s 27.5 μM, PAPMSF 64 μM"}, "Cl-r": {"tested_on": "Cl-r", "experiment": "inhibition/inactivation of human Clr", "format": "biochemical"}, "chymotrypsin [4]": {"tested_on": "chymotrypsin", "experiment": "inhibition of bovine chymotrypsin", "format": "biochemical", "settings": "neutral pH, approximately 10-fold excess of reagent over enzyme; FIG. 1"}, "serine proteases [5]": {"tested_on": "serine proteases", "experiment": "serine protease inactivation by known inactivators (background)", "format": "biochemical", "settings": "approximately 2:1 reagent:enzyme; Table 1"}, "serine proteases [6]": {"tested_on": "serine proteases", "experiment": "reactivity of para versus meta form"}, "acetyl cholinesterase": {"tested_on": "acetyl cholinesterase", "experiment": "inhibition of bovine acetyl cholinesterase"}, "trypsin [7]": {"tested_on": "trypsin", "settings": "large excess with respect to enzyme; cited from earlier work"}, "chymotrypsin [8]": {"tested_on": "chymotrypsin", "settings": "large excess with respect to enzyme; cited from earlier work"}, "[9]": {"settings": "neutral pH, approximately 10-fold excess of reagent over enzyme, FIG. 1"}}, "note": "Where two headings read alike, the source gives them in different places.", "data": [{"compound": "N=C(N)c1cccc(CS(=O)(=O)F)c1", "note": "[MAPMSF, m-Amidinophenylmethylsulfonylfluoride]", "values": [{"measurement": "inactivation (in words)", "setting": "Trypsin [1]", "result": "slowly inactivated"}, {"measurement": "loss of activity", "setting": "chymotrypsin [2]", "result": "no loss of activity"}]}, {"compound": "N=C(N)c1ccc(CS(=O)(=O)F)cc1", "note": "[PAPMSF, p-amidinophenylmethylsulfonylfluoride]", "values": [{"measurement": "% Activity Remaining", "setting": "Trypsin [3]; 1 min", "result": 0, "unit": "%"}, {"measurement": "% Activity Remaining", "setting": "Trypsin [3]; 5 min", "result": 0, "unit": "%"}, {"measurement": "% Activity Remaining", "setting": "Trypsin [3]; 10 min", "result": 0, "unit": "%"}, {"measurement": "recovery of enzymatic activity after dialysis (irreversibility)", "setting": "Trypsin [3]; dialysis of inactivated trypsin", "result": "did not lead to recovery of enzymatic activity"}, {"measurement": "inactivation (in words)", "setting": "Trypsin [3]; [9]", "result": "rapidly inactivated"}, {"measurement": "rate of inactivation of trypsin, pH dependence", "setting": "Trypsin [3]; pH 3.0, 5.0 or 7.4", "result": "essentially unchanged"}, {"measurement": "% Activity Remaining", "setting": "Thrombin; 1 min", "result": 26, "unit": "%"}, {"measurement": "% Activity Remaining", "setting": "Thrombin; 5 min", "result": 24, "unit": "%"}, {"measurement": "% Activity Remaining", "setting": "Thrombin; 10 min", "result": 21, "unit": "%"}, {"measurement": "inactivation (in words)", "setting": "Thrombin; [9]", "result": "rapidly inactivated"}, {"measurement": "% Activity Remaining", "setting": "Cl-s; 1 min", "result": 60, "unit": "%"}, {"measurement": "% Activity Remaining", "setting": "Cl-s; 5 min", "result": 59, "unit": "%"}, {"measurement": "% Activity Remaining", "setting": "Cl-s; 10 min", "result": 52, "unit": "%"}, {"measurement": "inactivation (in words)", "setting": "Cl-s; [9]", "result": "rapidly inactivated"}, {"measurement": "% Activity Remaining", "setting": "Cl-r; Cl-r 4.8 μgm/ml, PAPMSF 130 μM, 10 min", "result": 25, "unit": "%"}, {"measurement": "inactivation (in words)", "setting": "Cl-r; [9]", "result": "rapidly inactivated"}, {"measurement": "inhibition (in words)", "setting": "chymotrypsin [4]", "result": "not inhibited"}, {"measurement": "inhibition at lower concentrations (in words)", "setting": "serine proteases [5]", "result": "still an effective inhibitor"}, {"measurement": "reactivity / activity relative to meta form", "setting": "serine proteases [6]", "result": "higher activity than the meta form"}, {"measurement": "stability in water at high pH", "setting": "stability; aqueous solutions above pH 8", "result": "can hydrolyze to sulfonic acid in water at high pH"}, {"measurement": "stability in solution in organic solvents", "setting": "stability; methanol, acetone, ethanol, dimethylsulfoxide, acetonitrile, dimethylformamide and the like", "result": "stable in solution in organic solvents"}, {"measurement": "stability of salts at physiological conditions", "setting": "stability; pH and contact with aqueous based body fluids", "result": "good stability at physiological conditions"}, {"measurement": "solubility", "setting": "solubility in water", "result": "≤ 10", "unit": "mM"}, {"measurement": "reaction with acetyl cholinesterase (in words)", "setting": "acetyl cholinesterase", "result": "does not react with acetyl cholinesterase"}, {"measurement": "toxic properties compared with diisopropylfluorophosphate (in words)", "setting": "acetyl cholinesterase; inferred from lack of reaction with acetyl cholinesterase", "result": "does not have the toxic properties previously described for diisopropylfluorophosphate"}, {"measurement": "inhibition (in words)", "setting": "acetyl cholinesterase; [9]", "result": "not inhibited"}]}, {"compound": "O=S(=O)(F)Cc1ccccc1", "note": "[Phenylmethanesulfonylfluoride]", "values": [{"measurement": "inhibition (in words)", "setting": "trypsin [7]", "result": "inhibits both trypsin and chymotrypsin"}, {"measurement": "inhibition (in words)", "setting": "chymotrypsin [8]", "result": "inhibits both trypsin and chymotrypsin"}]}]}
